Measurements: patent US20230202982A1, “5-CHLORO-4-HYDROXY-1-METHYL-2-OXO-N-PHENYL-QUINOLINE-3-CARBOXAMIDE POTASSIUM SALT FOR TREATING INFLAMMATORY BOWEL DISEASES” (Aqilion AB, priority 2020, published 2023)
Values after ≈ are worked out from the molar mass of the structure shown. “Also recorded” adds a separate entry of the source. Where a name gives a salt, the structure may show the parent alone.

Experiments:
[1] = Thermogravimetric analysis (TGA) and differential scanning calorimetry (DSC); assay type: physicochemical; conditions: heating 20° C./min, nitrogen
Description: For the TGA analysis, approximately 5-10 mg of sample of Example Compound 1 was accurately weighed into a pierced Tzero aluminium pan and sealed with a pinhole lid using a crimper. The sample was then loaded into the chamber of a TGA thermal analyser at ambient temperature. A TA Instruments TGA5500 device was used. The sample was then heated at a rate of 20° C./min from 20° C. to 400° C. The purge gas used was nitrogen at a flow rate of 50 cm^3/min.
For the DSC analysis, approximately 2 mg of sample was accurately weighed into a pierced Tzero aluminium pan and sealed using a universal crimper. The sample was then loaded into the chamber of a DSC analyser at ambient temperature. A TA Instruments DSC2500 device was used. The sample was then heated at a rate of 20° C./min from 30° C. to 400° C. The purge gas used was nitrogen at a flow rate of 50 cm^3/min

[2] = Slurry in water for 48 hours, re-examined by XRPD (disproportionation); assay type: physicochemical; conditions: slurry in water 20 mg / 400 uL, ambient temperature
Description: When a sample of Example compound 1 was stored in a slurry in water at 20 mg / 400uL for 48 hours at ambient temperature, recovered, dried by evaporation and re-examined by XRPD, there was no change in the X-ray diffractogram.

[3] = Hygroscopicity by Dynamic Vapour Sorption (DVS); assay type: physicochemical; conditions: 25° C.; for Hygroscopicity: DVS, 0 to 90% RH; for Reversible weight gain (DVS): analysed to 80% RH
Description: Dynamic Vapour Sorption (DVS) analysis was carried out on a sample of Example compound 1.
Approximately 20 mg of sample was placed into a wire-mesh vapour sorption balance pan and loaded into an ‘IgaSorp’ vapour sorption balance (Hiden Analytical Instruments). The sample was then dried by maintaining a 0% humidity environment until no further weight change was recorded.
The sample was then subjected to a step profile from 0 to 90% RH at 10% RH increments. The desorption isotherm was from 90% RH o 0% RH in 10% RH steps. The weight change during the sorption/desorption cycles were then monitored, allowing for the hygroscopic nature of the sample to be determined. Analysis was performed using the following parameters: • Analysis Mode F1 • Wait Time 99% • Sample Temperature 25° C. • Min Time Out 30 Mins • MaxTime Out 180 Mins • Gas Flow Rate 250 ml/min

[4] = Solubility in PBS (pH 7.4) and simulated colonic fluid, saturated solutions by HPLC-UV; assay type: physicochemical; conditions: saturated solution, ambient temperature
Description: The solubility and stability at room temperature of Example compound 1 and the free acid compound 5-chloro-4-hydroxy-1-methyl-2-oxo-N-phenyl-quinoline-3-carboxamide (described in Example 1a) above) was determined in PBS (pH 7.4) and in simulated colonic fluid (SCF) at ambient temperature. The SCF was the product FaSSCof obtained from Biorelevant.com prepared according to the manufacturer’s instructions. FaSSCof contains 0.15 mM sodium cholate, 0.3 mM Phospholipids, 0.1 mM Oleate, 120 mM sodium hydroxide, 45 mM TRIS and 76 mM maleate.
Saturated solutions were prepared in these solvents and the concentrations/impurity profile was determined by HPLC-UV using a calibration curve in the range of 1 to 150 µg/ml at 300 nm or 320 nm. Visual evaluation was also performed after every step over the testing period.

[5] = test system: Ulcerative Colitis modelled by Dextran Sulphate Sodium (DSS); assay: DSS mouse model of Ulcerative Colitis; assay type: in vivo, C57B1/6 mice; conditions: 1 mg/kg daily oral; for Colitis clinical score: Day 9, vs vehicle-treated controls, FIG. 8; for Colon length: Day 10 termination, FIG. 10
Description: Ulcerative Colitis was modelled in C57B1/6 mice by administering Dextran Sulphate Sodium (DSS) in drinking water (1.5% w/v) for 5 days. Mice were monitored daily for weight loss and clinical symptoms of disease for 10 days starting at the beginning of DSS administration.
Anti-TNFα antibody was administered at 500 µg/treatment on Days 0, 2, 4, and 6. Following termination on Day 10, colons were removed and measured. The length and weight of the colon were also assessed.
Compared to naive animals, animals given DSS water developed clinical signs of disease including weight loss and diarrhoea as well as gross pathological signs of disease on experiment termination. […] Shortened length and increased weight:length ratio indicates edema associated with ulcerative colitis.

[6] = listed as 5-chloro-4-hydroxy-1-methyl-2-oxo-N-phenyl-quinoline-3-carboxamide free acid

Cn1c(=O)c(C(=O)Nc2ccccc2)c([O-])c2c(Cl)cccc21.[Li+] [Example compound 3, 5-chloro-4-hydroxy-1-methyl-2-oxo-N-phenyl-quinoline-3-carboxamide lithium salt]
Degradation temperature ([1]; listed as 5-chloro-4-hydroxy-1-methyl-2-oxo-N-phenyl-quinoline-3-carboxamide lithium salt, lithium salt): around 360 °C
Degradation temperature ([1]; listed as Example Compound 3, lithium salt): 360 °C ±2 °C
Stability in water slurry: change in X-ray diffractogram [2]: slight changes
Hygroscopicity [3]: slightly hygroscopic
Reversible weight gain (DVS) [3]: less than 0.25%

Cn1c(=O)c(C(=O)Nc2ccccc2)c(O)c2c(Cl)cccc21 [Free Acid, 5-chloro-4-hydroxy-1-methyl-2-oxo-N-phenyl-quinoline-3-carboxamide]
Solubility in PBS (pH7.4) ([4]; PBS (pH 7.4), listed as 5-chloro-4-hydroxy-1-methyl-2-oxo-N-phenyl-quinoline-3-carboxamide free acid): not quantifiable; also recorded: Non quantifiable
solubility ([4]; simulated colonic fluid (FaSSCof), fassgf or other biorelevant, thermodynamic from solid, SCF (FaSSCof), read-out: Solubility in simulated colonic fluid (SCF)): 3.44 µg/mL (≈ 10.5 µM)
Degradation temperature [1]: 260 °C ±2 °C
Degradation temperature [1, 6]: 260 °C
Colitis clinical score [5]: protective effect against the development of the clinical symptoms
Colitis clinical score [5, 6]: significant reduction
Colitis clinical score ([5]; listed as 5-chloro-4-hydroxy-1-methyl-2-oxoN-phenyl-quinoline-3-carboxamide free acid): lower colitis score
Colon length ([5]; vs vehicle-treated controls): effective at reducing colon shortening
Colon length ([5]; vs vehicle-treated controls, listed as 5-chloro-4-hydroxy-1-methyl-2-oxo-N-phenyl-quinoline-3-carboxamide free acid): significant increase; also recorded: greater colon length
Body weight change (% change from day 1 of experiment) ([5]; vs vehicle-treated controls, FIG. 9): reduced weight loss

Cn1c(=O)c(C(=O)Nc2ccccc2)c(O)c2c(Cl)cccc21 [Example compound 2, 5-chloro-4-hydroxy-1-methyl-2-oxo-N-phenyl-quinoline-3-carboxamide sodium salt]
Degradation temperature ([1]; listed as 5-chloro-4-hydroxy-1-methyl-2-oxo-N-phenyl-quinoline-3-carboxamide sodium salt, sodium salt): around 350 °C
Degradation temperature ([1]; listed as Example Compound 2, sodium salt): 350 °C ±2 °C
Stability in water slurry: change in X-ray diffractogram [2]: slight changes
Hygroscopicity [3]: slightly hygroscopic
Reversible weight gain (DVS) [3]: 1%
